Biological target: T1, HRP Type VIA (Armoracia rusticana, UniProt P00433)
T1 sequence (P00433 31-338): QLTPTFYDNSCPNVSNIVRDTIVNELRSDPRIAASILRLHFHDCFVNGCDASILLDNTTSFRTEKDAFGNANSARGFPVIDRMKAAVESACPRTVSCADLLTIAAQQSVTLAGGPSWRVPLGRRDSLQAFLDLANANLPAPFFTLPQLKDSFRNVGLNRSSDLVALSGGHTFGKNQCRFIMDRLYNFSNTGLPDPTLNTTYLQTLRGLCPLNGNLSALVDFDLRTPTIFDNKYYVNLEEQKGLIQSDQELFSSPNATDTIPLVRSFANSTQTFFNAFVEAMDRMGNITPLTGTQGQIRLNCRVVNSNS
Test: Effect of PBBA amount on the luminol or isoluminol-H2O2-HRP chemiluminescent reaction (Example 1, part 1)
Assay type: biochemical, horseradish
Conditions: for Signal (no HRP) / Signal (with HRP): after 5 minutes
Experimental: PBBA was added in various concentrations (range 0.05µg to 0.5µg) to a luminol-H2O2 reaction in the presence and absence of HRP. […] These two solutions were combined and protected from light. The luminol-hydrogen peroxide reagent (100µl of a 1:10 dilution) was added to a cuvette together with either 10µl of HRP Type VI A (HRP, Sigma Chemical Co., 1:50,000 dilution) or as a control 10µl of Tris Buffer (0.1mol/l, pH 8.6), and various amounts of PBBA (Aldrich Chemical Co.), range 0.05µg-0.5µg in 0.1mol/l Tris, pH 8.6). The reagents were mixed and the light emission recorded after 5 minutes on a Berthold Biolumat LB9500C.
This experiment was repeated, replacing the luminol with isoluminol. […]

SMILES: OB(O)c1ccc(Br)cc1 [PBBA, para-bromophenylboronic acid]
- light emission in the luminol-HRP-peroxidase reaction (Column (a), result in words): enhances the light emission
- background level of luminescence (Column (b), result in words): reduces the background level of luminescence
- Signal: Background ratio (Isoluminol, PBBA 0.05 µg): 2.1
- Signal (no HRP) (Isoluminol, PBBA 0.05 µg): 7664
- Signal (with HRP) (Isoluminol, PBBA 0.05 µg): 15,772
- Signal: Background ratio (Isoluminol, PBBA 0.1 µg): 2.7
- Signal (no HRP) (Isoluminol, PBBA 0.1 µg): 6114
- Signal (with HRP) (Isoluminol, PBBA 0.1 µg): 16,553
- Signal: Background ratio (Isoluminol, PBBA 0.2 µg): 11.9
- Signal (no HRP) (Isoluminol, PBBA 0.2 µg): 5736
- Signal (with HRP) (Isoluminol, PBBA 0.2 µg): 68,282
- Signal: Background ratio (Isoluminol, PBBA 0.3 µg): 110.4
- Signal (no HRP) (Isoluminol, PBBA 0.3 µg): 5613
- Signal (with HRP) (Isoluminol, PBBA 0.3 µg): 619,880
- Signal: Background ratio (Isoluminol, PBBA 0.4 µg): 147.0
- Signal (no HRP) (Isoluminol, PBBA 0.4 µg): 5278
- Signal (with HRP) (Isoluminol, PBBA 0.4 µg): 775,965
- Signal: Background ratio (Luminol, PBBA 0.05 µg): 6.1
- Signal (no HRP) (Luminol, PBBA 0.05 µg): 16,556
- Signal (with HRP) (Luminol, PBBA 0.05 µg): 101,227
- Signal: Background ratio (Luminol, PBBA 0.1 µg): 6.7
- Signal (no HRP) (Luminol, PBBA 0.1 µg): 16,065
- Signal (with HRP) (Luminol, PBBA 0.1 µg): 108,213
- Signal: Background ratio (Luminol, PBBA 0.2 µg): 8.1
- Signal (no HRP) (Luminol, PBBA 0.2 µg): 13,890
- Signal (with HRP) (Luminol, PBBA 0.2 µg): 112,644
- Signal: Background ratio (Luminol, PBBA 0.3 µg): 11.2
- Signal (no HRP) (Luminol, PBBA 0.3 µg): 10,899
- Signal (with HRP) (Luminol, PBBA 0.3 µg): 122,116
- Signal: Background ratio (Luminol, PBBA 0.4 µg): 12.5
- Signal (no HRP) (Luminol, PBBA 0.4 µg): 10,706
- Signal (with HRP) (Luminol, PBBA 0.4 µg): 133,401
- Signal: Background ratio (Luminol, PBBA 0.5 µg): 16.9
- Signal (no HRP) (Luminol, PBBA 0.5 µg): 8,963
- Signal (with HRP) (Luminol, PBBA 0.5 µg): 151,572

Reference: patent EP0626016B1, “[…] […]” (BRITISH TECHNOLOGY GROUP LIMITED, priority 1992, dated 1993)
